Results from PubChem BioAssay AID248 (DTP/NCI, 2004).
Several values for one entry are separate records, joined by “and”; a condition that tells them apart may be missing. Equal values may be shown once. Inconclusive results and toxic doses are left out. Rule as the data show it: active = T/C of 150% or more; inactive = T/C below 125%.

Tested on: L1210 leukemia ip in BDF1 mice, survival T/C
Test: NCI In Vivo Anticancer Drug Screen. Data for tumor model L1210 Leukemia (intraperitoneal) in B6D2F1 (BDF1) mice
Settings: endpoint: mean survival time, higher = longer survival
Procedure, shortened: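 Each compound was tested against a transplantable tumor grown in mice. The endpoint was survival, with treated animals benchmarked against vehicle controls as a simple ratio.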

[1] = dose: 100.0 mg/kg/injection, schedule: Q01DX009 (ip), vehicle: saline with Tween-80
[2] = dose: 100.0 mg/kg/injection, schedule: Q01DX009 (ip), vehicle: saline
[3] = dose: 100.0 mg/kg/injection, schedule: Q04DX003 (ip), vehicle: saline
[4] = dose: 200.0 mg/kg/injection, schedule: Q01DX009 (ip), vehicle: saline
[5] = dose: 200.0 mg/kg/injection, schedule: Q04DX003 (ip), vehicle: saline
[6] = dose: 400.0 mg/kg/injection, schedule: Q01DX009 (ip), vehicle: saline
[7] = dose: 400.0 mg/kg/injection, schedule: Q04DX003 (ip), vehicle: saline
[8] = dose: 100.0 mg/kg/injection, schedule: Q04DX003 (ip), vehicle: Klucel (hydroxypropylcellulose) (HPC)
[9] = dose: 200.0 mg/kg/injection, schedule: Q04DX003 (ip), vehicle: Klucel (hydroxypropylcellulose) (HPC)
[10] = dose: 100.0 mg/kg/injection, schedule: Q04DX003 (ip), vehicle: saline with Tween-80
[11] = dose: 200.0 mg/kg/injection, schedule: Q04DX003 (ip), vehicle: saline with Tween-80
[12] = dose: 100.0 mg/kg/injection, schedule: Q01DX009 (ip), vehicle: Klucel (hydroxypropylcellulose) (HPC)
[13] = dose: 200.0 mg/kg/injection, schedule: Q01DX009 (ip), vehicle: Klucel (hydroxypropylcellulose) (HPC)
[14] = dose: 400.0 mg/kg/injection, schedule: Q01DX009 (ip), vehicle: Klucel (hydroxypropylcellulose) (HPC)
[15] = dose: 400.0 mg/kg/injection, schedule: Q04DX003 (ip), vehicle: Klucel (hydroxypropylcellulose) (HPC)
[16] = dose: 100.0 mg/kg/injection, schedule: Q04DX002 (ip), vehicle: saline
[17] = dose: 200.0 mg/kg/injection, schedule: Q04DX002 (ip), vehicle: saline
[18] = dose: 400.0 mg/kg/injection, schedule: Q04DX002 (ip), vehicle: saline
[19] = dose: 100.0 mg/kg/injection, schedule: Q04DX002 (ip), vehicle: saline with Tween-80
[20] = dose: 100.0 mg/kg/injection, schedule: Q01DX001 (ip), vehicle: saline
[21] = dose: 200.0 mg/kg/injection, schedule: Q01DX001 (ip), vehicle: saline
[22] = dose: 400.0 mg/kg/injection, schedule: Q01DX001 (ip), vehicle: saline
[23] = dose: 100.0 mg/kg/injection, schedule: Q01DX001 (ip), vehicle: carboxymethylcellulose (CMC)
[24] = dose: 200.0 mg/kg/injection, schedule: Q01DX001 (ip), vehicle: carboxymethylcellulose (CMC)
[25] = dose: 400.0 mg/kg/injection, schedule: Q01DX001 (ip), vehicle: carboxymethylcellulose (CMC)

Measured: T/C

CCCCOC(=O)c1ccc(NC(=O)Nc2cccc(F)c2)cc1
inactive: [1] 95 % of control

C/C=C(\C)C(=O)O
inactive: dose: 222.0 mg/kg/injection, schedule: Q01DX Z (ip), vehicle: saline 90 % of control

COC(=O)CC(=O)c1cc(C(C)(C)C)cc(C(C)(C)C)c1
inactive: dose: 100.0 mg/kg/injection, schedule: Q04DX003 (ip), vehicle: DMSO 96 % of control | dose: 200.0 mg/kg/injection, schedule: Q04DX003 (ip), vehicle: DMSO 103 % of control

CC(N)=O.CC(N)=O.Nc1ccnc(=O)[nH]1.[Cl][Pt]
inactive: [2] 110 % of control | [3] 114 % of control | [4] 114 % of control | [5] 116 % of control | [6] 101 % of control | [7] 119 % of control

CC(C)CC(C)N (stereo not drawn)
inactive: dose: 50.0 mg/kg/injection, schedule: Q04DX003 (ip), vehicle: Klucel (hydroxypropylcellulose) (HPC) 93 % of control | [8] 100 % of control | [9] 96 % of control

OCC1OC(Nc2ncnc3c2ncn3C2OC(CO)C(O)C2O)C(O)C1O (stereo not drawn)
inactive: dose: 12.5 mg/kg/injection, schedule: Q01DX005 (ip), vehicle: saline 96 % of control | dose: 12.5 mg/kg/injection, schedule: Q01DX009 (ip), vehicle: saline 100 % of control | dose: 25.0 mg/kg/injection, schedule: Q01DX005 (ip), vehicle: saline 104 % of control | dose: 25.0 mg/kg/injection, schedule: Q01DX009 (ip), vehicle: saline 103 % of control | dose: 50.0 mg/kg/injection, schedule: Q01DX005 (ip), vehicle: saline 117 % of control

C=C1C(=O)O[C@@H]2C[C@@H](C)[C@@H]3CC(=O)OC[C@@]3(C)C[C@H]12
inactive: [10] 95 % of control | [11] 97 % of control

CC1(C)CN1C1=C(F)C(=O)C(N2CC2(C)C)=C(F)C1=O
inactive: dose: 6.25 mg/kg/injection, schedule: Q04DX003 (ip), vehicle: saline 100 % of control | dose: 12.5 mg/kg/injection, schedule: Q04DX003 (ip), vehicle: saline 104 % of control | dose: 25.0 mg/kg/injection, schedule: Q04DX003 (ip), vehicle: saline 104 % of control

COc1ccccc1OCCN1Cc2ccccc2C1
inactive: [10] 96 % of control | [11] 92 % of control

CC12CCC3c4ccccc4CCC3(CO1)C2 (stereo not drawn)
inactive: [12] 105 % of control | [8] 95 % of control | [13] 105 % of control | [9] 106 % of control | [14] 104 % of control | [15] 95 % of control

CC(C)(C)C1SCC(=NNc2ccc([N+](=O)[O-])cc2[N+](=O)[O-])CS1 (stereo not drawn)
inactive: dose: 12.5 mg/kg/injection, schedule: Q04DX002 (ip), vehicle: gum acacia 95 % of control | dose: 25.0 mg/kg/injection, schedule: Q04DX002 (ip), vehicle: gum acacia 98 % of control | dose: 50.0 mg/kg/injection, schedule: Q04DX002 (ip), vehicle: gum acacia 95 % of control

CCn1c(=O)c2ccccc2c2cc([N+](=O)[O-])ccc21
inactive: [8] 90 % of control | [9] 97 % of control | [15] 97 % of control

CCCCOC(=O)C(C)(O)C(Cl)c1ccccc1 (stereo not drawn)
inactive: [16] 100 % of control | [17] 95 % of control | [18] 91 % of control

Cc1c([N+](=O)[O-])cc(C(C)(C)C)c(OC(=S)N(C)C)c1[N+](=O)[O-]
inactive: dose: 25.0 mg/kg/injection, schedule: Q04DX002 (ip), vehicle: saline with Tween-80 105 % of control | [19] 86 % of control

COc1ccc(OC)c(NC(=O)CS)c1
inactive: [10] 97 % of control | [11] 91 % of control

COc1ccc(C(=S)N2CCN(c3ccc(C)cc3)CC2)cc1
inactive: [20] 98 % of control | [21] 95 % of control | [22] 95 % of control

CC(=O)N=c1sccn1Cc1ccccc1
inactive: dose: 75.0 mg/kg/injection, schedule: Q01DX001 (ip), vehicle: carboxymethylcellulose (CMC) 95 % of control | dose: 150.0 mg/kg/injection, schedule: Q01DX001 (ip), vehicle: carboxymethylcellulose (CMC) 98 % of control | dose: 300.0 mg/kg/injection, schedule: Q01DX001 (ip), vehicle: carboxymethylcellulose (CMC) 98 % of control

CCOC(=O)c1cnc(SC)nc1NCc1ccccc1Cl
inactive: [12] 102 % of control | [8] 106 % of control | [13] 97 % of control | [9] 105 % of control | [14] 97 % of control | [15] 95 % of control

O=C1c2cccc([N+](=O)[O-])c2C(=O)c2c1cccc2[N+](=O)[O-]
inactive: [19] 93 % of control | dose: 200.0 mg/kg/injection, schedule: Q04DX002 (ip), vehicle: saline with Tween-80 104 % of control | dose: 400.0 mg/kg/injection, schedule: Q04DX002 (ip), vehicle: saline with Tween-80 100 % of control

OCC1OCC(O)C(O)C1O (stereo not drawn)
inactive: dose: 50.0 mg/kg/injection, schedule: Q01DX009 (ip), vehicle: saline 94 % of control | [2] 91 % of control | [4] 88 % of control

CC(S)c1ccc2c(c1)Cc1ccccc1-2 (stereo not drawn)
inactive: [23] 101 % of control | [24] 101 % of control | [25] 104 % of control

NC(=O)COc1c(F)c(F)c(F)c(F)c1F
inactive: [1] 101 % of control | dose: 200.0 mg/kg/injection, schedule: Q01DX009 (ip), vehicle: saline with Tween-80 101 % of control | dose: 400.0 mg/kg/injection, schedule: Q01DX009 (ip), vehicle: saline with Tween-80 97 % of control

O=COC1CC2CCC1C2 (stereo not drawn)
inactive: [16] 95 % of control | [17] 98 % of control | [18] 100 % of control

COc1cc([N+](=O)[O-])ccc1N
inactive: dose: 100.0 mg/kg/injection, schedule: Q01DX009 (ip), vehicle: saline sonified 116 % of control | [10] 105 % of control | dose: 200.0 mg/kg/injection, schedule: Q01DX009 (ip), vehicle: saline sonified 95 % of control | [11] 105 % of control | dose: 400.0 mg/kg/injection, schedule: Q01DX009 (ip), vehicle: saline sonified 104 % of control | dose: 400.0 mg/kg/injection, schedule: Q04DX003 (ip), vehicle: saline with Tween-80 115 % of control

CCCCCCCCCC(=O)N1CCCCC1CC (stereo not drawn)
inactive: [23] 103 % of control | dose: 100.0 mg/kg/injection, schedule: Q01DX009 (ip), vehicle: carboxymethylcellulose (CMC) 94 % of control and 95 % of control | dose: 100.0 mg/kg/injection, schedule: Q04DX002 (ip), vehicle: carboxymethylcellulose (CMC) 100 % of control and 92 % of control | dose: 100.0 mg/kg/injection, schedule: Q04DX003 (ip), vehicle: carboxymethylcellulose (CMC) 92 % of control | [24] 101 % of control | dose: 200.0 mg/kg/injection, schedule: Q01DX009 (ip), vehicle: carboxymethylcellulose (CMC) 95 % of control and 102 % of control | dose: 200.0 mg/kg/injection, schedule: Q04DX002 (ip), vehicle: carboxymethylcellulose (CMC) 103 % of control and 92 % of control | dose: 200.0 mg/kg/injection, schedule: Q04DX003 (ip), vehicle: carboxymethylcellulose (CMC) 95 % of control | [25] 95 % of control | dose: 400.0 mg/kg/injection, schedule: Q04DX002 (ip), vehicle: carboxymethylcellulose (CMC) 95 % of control and 96 % of control | dose: 400.0 mg/kg/injection, schedule: Q04DX003 (ip), vehicle: carboxymethylcellulose (CMC) 97 % of control

COC(=O)c1c(OC)ccc2c1CC1C3Nc4ccccc4C3CCN1C2 (stereo not drawn)
inactive: [8] 94 % of control | [9] 90 % of control | [15] 90 % of control

CCOC(=O)CCCC1(C)C(C#N)C(=O)NC(=O)C1C#N (stereo not drawn)
inactive: [2] 96 % of control | [3] 112 % of control | [4] 98 % of control | [5] 102 % of control | [6] 90 % of control | [7] 94 % of control

CN=C(NC)SC
inactive: [20] 103 % of control | [8] 100 % of control | [21] 97 % of control | [9] 93 % of control | [22] 96 % of control | [15] 100 % of control
